Type in all cases: cell-based
For one data set, the system named is NF-κB p65. Description: Immunofluorescence imaging of NF-κB p65 after TNFα activation. To be noted: for effect on p65 fluorescence signal: LCL3, 10 μM, 24 h, TNFα 10 ng/ml preincubation. As for the experimental part: (§1) We then investigate the inhibitory effects of our anti-LMP1 conjugates on the NF-κB pathway, which is one of the major pathways that EBV has hijacked for promoting cell growth and proliferation in EBV-associated tumours. Since NF-κB is typically activated by the canonical pathway which involves the nuclear translocation of the heterodimer of p50 and p65, immunofluorescence imaging of NF-κB p65 was then performed. Tumour necrosis factor alpha (TNFα) was added to these tumour cells, so as to activate the NF-κB pathway.
These assays were prepared and conducted at room temperature, unless otherwise stated. Cells with different treatment were fixed by formalin for 15 min. The samples were then washed with PBS and 0.2% Triton-X buffer was added onto the samples for 15 min. 3% BSA in PBS was served as the blocking buffer and applied onto the sample for 30 minutes at room temperature. The primary antibody was diluted in blocking buffer and added onto the sample at 4° C. overnight. The samples were washed with PBS and corresponding secondary antibodies were added over 1 h. Samples were washed with PBS and mountant was applied to each sample. Images were acquired either using a 370 nm laser excitation or from a 370 nm LED excitation of a Nikon Eclipse Ti2 Confocal Microscope. NIR images were captured by a NIRvana TE 640 camera. The signal enhancement of the C666-1 images were obtained by enhancing the exposure of the captured images by the NIS element AR software. Multiphoton microscopy was conducted by Leica TCS SP8 MP System.

A further data set concerns NF-κB activity. The data set can be described thus: pTRE-EGFP reporter of NF-κB activity in LCL3 cells. Particulars: LCL3, 6 hours. As for the experimental part: as §1
The antibodies including anti-LMP1 were purchased from Kerafast, while anti-NF-κB p65, anti-NF-κB p105/50, anti-histone H3, anti-GAPDH were purchased from Cell Signaling Technology. Anti-rabbit IgG HRP-linked, anti-mouse IgG HRP-linked, protease/phosphatase inhibitor cocktail were purchased from Cell Signaling Technology. Alexa Fluor 488-conjugated goat anti-mouse IgG, NucBlue fixed cell ready probes (DAPI), and ProLong gold antifade mountant with DAPI were purchased from Invitrogen. The transcriptional response element (TRE)-fluorescent protein reporter, pTRE-EGFP plasmid, was constructed as previously reported.
LCL3, AG876, AFB1 and C666-1 cells were grown in RPMI-1640 medium. HeLa cells were cultivated in DMEM medium and MRCS cells are cultivated in MEM medium (Gibco, USA). All media are supplemented with 10% fetal bovine serum and 1% penicillin/streptomycin antibiotics. […]

Data set [1] relates to weakly LMP1-positive (C666-1) and LMP1-negative cell lines (HeLa, MRCS). The data set can be described thus: MTT cytotoxicity assay, weakly LMP1-positive or LMP1-negative cells. As for the experimental part: (§2) To study the effects of the designed probes on cell survival, the MTT cytotoxicity assay was carried out in several highly LMP1-positive (LCL3, AFB1, AG876), weakly LMP1-positive (C666-1) and LMP1- negative cell lines (HeLa, MRCS), as shown in FIG. 9.
(§3) LCL3, AG876, AFB1 and C666-1 cells were grown in RPMI-1640 medium. HeLa cells were cultivated in DMEM medium and MRCS cells are cultivated in MEM medium (Gibco, USA). All media are supplemented with 10% fetal bovine serum and 1% penicillin/streptomycin antibiotics. All the cells are cultivated in a humidified incubator with 5% CO2 at 37° C. The pTRE-EGFP plasmid was transduced into LCL3 cells as previously mentioned.
In general terms: Tetrazolium assays rely on reduction of a dye to a coloured formazan, in cell work by metabolically active cells.

In a further data set the test system is NF-κB p65 and p50. The data set can be described thus: Western blot of nuclear NF-κB p65 and p50. Particulars: for nuclear p65 and p50 expression: LCL3 and AFB1, TNFα 10 ng/mL pre-treatment, compared with control. As for the experimental part:
Western blot analysis was also carried out to validate the above imaging results for the components in NF-κB pathway. The LMP1-overexpressing LCL3 and AFB1 cell lines were used for this analysis. […] After 24 hours incubation, the nuclear extracts were separated for each treatment, and the expression of NF-κB p65 and p50 was detected by Western blot analysis. […] Western blots of individual replicates for NF-κB p65 and p50 in different cell lines were illustrated in FIG. 14. […] The reduction in NF-κB activity can contribute to the cytotoxicity of the three compounds towards LMP1-overexpressing cells.
Cells with different treatments were harvested and washed with phosphate-buffered saline (PBS). Lysis buffer supplied by 1X proteases-phosphatase inhibitor were added into the cells for 5 min on ice. Then the samples were centrifuged at 14,000×g at 4° C. for 20 minutes. The fractionated cell lysates were subjected to SDS-PAGE gel and transferred onto PVDF membranes. Membranes were then blocked by 3% non-fat milk for 30 minutes at room temperature and incubated with specific primary antibodies at 4° C. overnight. They were then washed with TBST buffer and incubated with corresponding secondary antibodies for 1 h at room temperature. Then, the membranes were washed with TBST, and chemiluminescence substrate was added onto the membrane surface. ChemiDoc XRS system and Image Lab Software were used to visualize the blot.
(In general: Immunoblotting shows a protein as a band on a membrane.)

The nature of data set [2]: MTT cytotoxicity assay, all selected cell lines. Particulars: read-out: LC50 (the source's name). As to the method:
as §2, §3

SMILES strings stand for the structures. Where a SMILES comes first, the peptide text is derived from it. [ ]: non-standard residue; d: D form. dPra = C#CC[C@@H](N)C(=O)O; Ahx = NCCCCCC(=O)O Bounds are passed on as bounds.

Consider `C#CC[C@@H](N)C(=O)N[C@@H](CCCCN)C(=O)NCCCCCC(=O)N[C@@H](CCCCN)C(=O)N[C@@H](CC(C)C)C(=O)N[C@@H](CC(=O)O)C(=O)N[C@@H](CC(C)C)C(=O)N[C@@H](C)C(=O)N[C@@H](CC(C)C)C(=O)N[C@@H](CCCCN)C(=O)N[C@@H](Cc1ccccc1)C(=O)N[C@@H](Cc1c[nH]c2ccccc12)C(=O)N[C@@H](CC(C)C)C(=O)N[C@@H](Cc1ccc(O)cc1)C(=O)N[C@@H](CCCCN)C(=O)N[C@H](C(=O)N[C@H](C(=O)N[C@@H](CCSC)C(=O)N[C@@H](CO)C(=O)N[C@@H](CC(=O)O)C(=O)N[C@@H](CCCCN)C(=O)N[C@@H](Cc1c[nH]c2ccccc12)C(=O)N[C@@H](CCCCN)C(=O)N[C@@H](CCCNC(=N)N)C(=O)N[C@H](CCCNC(=N)N)C(=O)N[C@@H](CCCNC(=N)N)C(=O)N[C@@H](CCCCN)C(=O)O)C(C)C)[C@@H](C)CC` [P19, Pra-KAhx-K-LDLALK-FWLY-K-IVMSDKW-K-RrRK] (H-[dPra]K[Ahx]KLDLALKFWLYKIVMSDKWKR[dR]RK-OH; N-terminus and C-terminus assumed), for which the “effect on p65 fluorescence signal” value with NF-κB p65 is on record as “significant suppression”. For the same molecule, in the data set on NF-κB p65 (LMP1-negative HeLa and weak LMP1-expressing C666-1 cells), the “effect on NF-κB pathway (p65 fluorescence)” value is reported as “did not exhibit any effect”. Further, the GFP reporter signals entry in the data set on NF-κB activity is reported as “decreased”. In addition, in data set [1], the cytotoxicity entry is “relatively low”. The “changes in expression of p65 and p50” value with NF-κB p65 and p50 (C666-1 and HeLa cells) was “relatively minor”. The “nuclear p65 and p50 expression” value with NF-κB p65 and p50 is reported as “significantly weakened”.
Consider `C#CC[C@@H](N)C(=O)N[C@@H](CCCCN)C(=O)NCCCCCC(=O)N[C@@H](CCCCN)C(=O)N[C@@H](CC(C)C)C(=O)N[C@@H](CC(=O)O)C(=O)N[C@@H](CC(C)C)C(=O)N[C@@H](C)C(=O)N[C@@H](CC(C)C)C(=O)N[C@@H](CCCCN)C(=O)N[C@@H](C)C(=O)N[C@@H](C)C(=O)N[C@@H](C)C(=O)N[C@@H](C)C(=O)N[C@@H](CCCCN)C(=O)N[C@H](C(=O)N[C@H](C(=O)N[C@@H](CCSC)C(=O)N[C@@H](CO)C(=O)N[C@@H](CC(=O)O)C(=O)N[C@@H](CCCCN)C(=O)N[C@@H](Cc1c[nH]c2ccccc12)C(=O)N[C@@H](CCCCN)C(=O)N[C@@H](CCCNC(=N)N)C(=O)N[C@H](CCCNC(=N)N)C(=O)N[C@@H](CCCNC(=N)N)C(=O)N[C@@H](CCCCN)C(=O)O)C(C)C)[C@@H](C)CC` [P19C, reference compound] (H-[dPra]K[Ahx]KLDLALKAAAAKIVMSDKWKR[dR]RK-OH; N-terminus and C-terminus assumed), for which the “effect on p65 fluorescence signal” value in the data set with NF-κB p65 was “no significant effect”. Also, the CC50 in data set [2] was above 200 µM. Besides, in the data set on NF-κB p65 and p50, the “nuclear p65 and p50 expression” value was “no obvious change”.
